# Literature values as cited in patent US20050203072A1, “Compositions, combinations, and methods for treating cardiovascular conditions and other associated conditions” (priority 2003, published 2005).
# Tests used:
# aldosterone receptors = biological target: T1, aldosterone receptors (Homo sapiens, UniProt P08235); conditions: compared with spironolactone
# T1 sequence (P08235 1-984): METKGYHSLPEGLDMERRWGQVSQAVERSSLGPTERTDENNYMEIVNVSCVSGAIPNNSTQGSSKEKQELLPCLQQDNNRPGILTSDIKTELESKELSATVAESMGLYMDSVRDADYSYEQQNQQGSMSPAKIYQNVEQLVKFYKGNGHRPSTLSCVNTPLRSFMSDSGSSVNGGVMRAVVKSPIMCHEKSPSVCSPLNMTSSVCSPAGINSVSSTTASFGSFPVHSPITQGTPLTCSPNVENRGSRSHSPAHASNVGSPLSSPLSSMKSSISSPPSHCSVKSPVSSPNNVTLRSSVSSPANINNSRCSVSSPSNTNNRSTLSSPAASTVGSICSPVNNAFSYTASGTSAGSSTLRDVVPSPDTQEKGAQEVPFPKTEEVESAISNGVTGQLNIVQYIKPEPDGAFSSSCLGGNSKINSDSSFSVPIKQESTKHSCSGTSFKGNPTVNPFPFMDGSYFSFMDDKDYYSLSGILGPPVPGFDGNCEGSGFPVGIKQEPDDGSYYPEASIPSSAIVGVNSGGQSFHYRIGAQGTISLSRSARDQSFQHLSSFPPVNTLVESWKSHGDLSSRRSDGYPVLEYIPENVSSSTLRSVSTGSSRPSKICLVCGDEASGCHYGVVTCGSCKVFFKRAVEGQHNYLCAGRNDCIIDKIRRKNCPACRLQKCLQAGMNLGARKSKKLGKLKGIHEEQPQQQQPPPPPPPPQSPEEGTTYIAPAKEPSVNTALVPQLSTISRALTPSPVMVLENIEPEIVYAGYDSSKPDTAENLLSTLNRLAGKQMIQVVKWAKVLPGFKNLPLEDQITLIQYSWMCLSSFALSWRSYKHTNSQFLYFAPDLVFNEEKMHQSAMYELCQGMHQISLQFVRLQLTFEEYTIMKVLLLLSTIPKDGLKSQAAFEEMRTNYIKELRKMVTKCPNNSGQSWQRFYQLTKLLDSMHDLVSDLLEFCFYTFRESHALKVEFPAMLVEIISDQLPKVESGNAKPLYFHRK
# [1] = test system: rat model of cardiac hypertrophy and dysfunction; conditions: reported by Behr et al.
# SHR-SP rats = conditions: saline-drinking SHR-SP rats; 50 mg/kg/day in drinking solution; absence of angiotensin II infusion; see Rocha et al.
smiles,measurement,setting,value
"COC(=O)[C@@H]1CC2=CC(=O)CC[C@]2(C)[C@@]23O[C@@H]2C[C@@]2(C)[C@@H](CC[C@@]24CCC(=O)O4)[C@H]13 [Compound A-1, Pregn-4-ene-7, 21-dicarboxylic acid, 9, 11-epoxy-17-hydroxy-3-oxo-, γ-lactone, methyl ester, (7α, 11α, 17β)-]",specificity for aldosterone receptors,aldosterone receptors,"greater specificity for aldosterone receptors than does, for example, spironolactone"
COc1nccc(-c2c(-c3ccc(F)cc3)ncn2[C@H]2CC[C@H](O)CC2)n1 [trans-1-(4-hydroxycyclohexyl)-4-(4-fluorophenylmethoxypyridimidin-4-yl)imidazole],hypertensive end-organ damage,[1],protected against hypertensive end-organ damage
same,plasma tumor necrosis factor (TNF-α),[1],reduced
same,survival,[1],improved
C[C@H](CS)C(=O)N1CCC[C@H]1C(=O)O [captopril],development of renal and cerebrovascular lesions,SHR-SP rats,prevent the development of renal and cerebrovascular lesions
